Measured values as given in patent publication US20120225889A1, “USE OF MACROCYCLIC LACTONE DERIVATIVES FOR THE TREATMENT OF INFLAMMATORY DISORDERS” (PIRAMAL LIFE SCIENCES LIMITED, priority 2010, published 2012).

Legend:
IFN-γ = assay: Concanavalin-A-induced IFN-γ production from hPBMC; assay type: cell-based; conditions: Homo sapiens; Con-A-induced production from hPBMCs, 18 h
Method: Peripheral blood mononuclear cells (hPBMC) were harvested using Ficoll-Hypaque density gradient centrifugation (1.077 g/mL; Sigma Aldrich). hPBMCs were resuspended in RPMI 1640 culture medium (Gibco BRL, Pasley, UK) containing 10% FCS, 100 U/mL penicillin (Sigma Chemical Co. St Louis, Mo.) and […] streptomycin (Sigma Chemical Co. St Louis, Mo.) at 1×10^6 cells/mL. 1×10^5 hPBMCs/well were pre-treated with test compound or 0.5% DMSO (carrier control) for 30 min at 37° C. Subsequently, these cells were stimulated with 1 μg/mL concanavalin A (Sigma Chemical Co., St. Louis, Mo.). Following 18 h incubation at 37° C., supernatants were collected and stored at −70° C. until assayed for human IFN-γ by ELISA as described by the manufacturer (OptiEIA ELISA sets, BD BioSciences). In each experiment, cyclosporin (1 μM) was used as a positive control for inhibiting induced IFN-γ production.

CEBPδ = assay: Gene expression profile using RTQ-PCR: CEBPδ; assay type: cell-based, human; conditions: 3 μM
Method: (§1) The effect of the compound of example 7 was measured in stimulated untreated cells from the monocytic cell line (THP-1), human monocytes and synovial cells from rheumatoid arthritis patient. The effect of the compound in the THP-1 cell line was measured in terms of gene expression and was expressed as fold changes as compared to the cell stimulated control with no drug treatment.
(§2) THP-1 cells, human monocytes and synovial cells were treated with compound of example 7 or vehicle (0.5% DMSO). Total RNA isolation using a commercial RNA extraction kit (Qiagen Corporation, Germany) The first-strand cDNA was synthesized from total RNA using first strand cDNA synthesis kit from Invitrogen Corporation (California, USA). This was followed by real time quantitative polymerase chain reaction (RTQ PCR) using gene specific primers and standard thermal program of initial denaturation at 95° C. for 5 min and cycles of 95° C. for 10 seconds, followed by 60° C. for 30 seconds (Realplex PCR machine from Eppendorf, Germany). Quantitative measurement of products made during PCR cycles was normalized against a housekeeping gene (Actin) and was used to measure the gene expression as fold changes as compared to respective control.

cMyc = assay: Gene expression profile using RTQ-PCR: cMyc; assay type: cell-based, human; conditions: 3 μM
Method: as §1, §2

MMP13 = assay: Gene expression profile using RTQ-PCR: MMP13; assay type: cell-based, human; conditions: 3 μM
Method: as §1, §2

MyD88 = assay: Gene expression profile using RTQ-PCR: MyD88; assay type: cell-based, human; conditions: 3 μM
Method: as §1, §2

[1] = test system: DBA/1J mice with collagen induced arthritis; assay: Arthritic mice: administration by osmotic pumps; assay type: in vivo; conditions: sub-cutaneous osmotic pumps, 240 μg/mouse/24 h, 26 days
Method: The experiment was performed in DBA/1J mice, in which arthritis was developed by injection of collagen emulsion, as described in Example 26.
The animals were divided into two groups, viz. a control group and a test compound treated group, having 6 animals each. The clear solution of test compound was prepared in 100% dimethyl sulfoxide (DMSO) and then DMSO concentration was brought down to 25% by addition of appropriate quantities of ethanol and polyethylene glycol 400 (PEG 400), so that the proportion of each solvent in a final solution v/v was 25:15:60::DMSO:EtOH:PEG-400. By this method absolutely clear solution of the compound having a final concentration of 40 mg/mL was obtained. This solution was filtered through 0.2μ filter and was filled in osmotic pumps (Alzet micro-osmotic pump model 1002). The delivery rate of this model of pump is 0.25 μL per hour and it remains functional for 14 days.
These pumps were then implanted sub-cutaneously in the animals of the test compound treated group (240 μg/mouse/24 h). The pumps filled with blank solvent were implanted sub-cutaneously in the animals of control group. Thereafter, their paws were scored for arthritic indices, in addition to measurement of thickness, daily once. After 14 days, the pumps were replaced with freshly filled pumps and the experiment was continued for next 12 days (total 26 days).

[2] = Human monocytes, 3 h, ± SE, N = 3

C/C=C/C(O)C(C)/C=C/C(=N\O)C(C)C(O)C(C)C1OC(=O)/C(OC)=C/C(C)=C/C(C)C(O)C(CC)C(O)C(C)C/C(C)=C/C=C/C1OC (centres unmarked) [Compound of example 7, (3Z,5E,13E,15E)-18-((5Z,6E,10E)-3,9-Dihydroxy-5-(hydroxymino)-4,8-dimethyldodeca-6,10-dien-2-yl)-9-ethyl-8,10-dihydroxy-3,17-dimethoxy-5,7,11,13-tetramethyl oxacyclooctadeca-3,5,13,15-tetraen-2-one]
IC50 (IFN-γ): 0.2 µM
CEBPδ gene expression (CEBPδ; [2]): −1.4 + 0.4 log fold change
CEBPδ gene expression (CEBPδ; Synovial cells, 12 h, N = 1): −1.1 log fold change
CEBPδ gene expression (CEBPδ; THP-1 cells, 12 h, ± SE, N = 3): −1.8 + 1.0 log fold change
cMyc gene expression (cMyc; [2]): −1.9 + 1.7 log fold change
cMyc gene expression (cMyc; Synovial cells, 12 h, N = 1): −0.5 log fold change
cMyc gene expression (cMyc; THP-1 cells, 12 h, ± SE, N = 3): −1.1 log fold change
MMP13 gene expression (MMP13; [2]): −2.2 + 2.0 log fold change
MMP13 gene expression (MMP13; Synovial cells, 12 h, N = 1): −4.0 log fold change
MMP13 gene expression (MMP13; THP-1 cells, 12 h, ± SE, N = 3): −4.1 + 3.5 log fold change
MyD88 gene expression (MyD88; [2]): −0.2 + 1.9 log fold change
MyD88 gene expression (MyD88; Synovial cells, 12 h, N = 1): −0.5 log fold change
MyD88 gene expression (MyD88; THP-1 cells, 12 h, ± SE, N = 3): −0.2 + 0.2 log fold change
severity of arthritis (arthritic scores and paw thickness) [1]: reduces severity of arthritis
